Reference: patent publication US11730817B2, “Pro-cyclic dinucleotides and pro-cyclic dinucleotide conjugates for cytokine induction” (INVIVOGEN, priority 2017, dated 2023)

Target: STING (Homo sapiens, UniProt Q86WV6, G230A/H232R/R293Q/R71H)
Experiment: ISG54 (IRF pathway) reporter assay in THP1-Dual cells
Details: for EC50 rank order (lipid chain length): FIG. 6, human or murine reporter cell

Chain of STING (Q86WV6 whole entry R71H/G230A/H232R/R293Q): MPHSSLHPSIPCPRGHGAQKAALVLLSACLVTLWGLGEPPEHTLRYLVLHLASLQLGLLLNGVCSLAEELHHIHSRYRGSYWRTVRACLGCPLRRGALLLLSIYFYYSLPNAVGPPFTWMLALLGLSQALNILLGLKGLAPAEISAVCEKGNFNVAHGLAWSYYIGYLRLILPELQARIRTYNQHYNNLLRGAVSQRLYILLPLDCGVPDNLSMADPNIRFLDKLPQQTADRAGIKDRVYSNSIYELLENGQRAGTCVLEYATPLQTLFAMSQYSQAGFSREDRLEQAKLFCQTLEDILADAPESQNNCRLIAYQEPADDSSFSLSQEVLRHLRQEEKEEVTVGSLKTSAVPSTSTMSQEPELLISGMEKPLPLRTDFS

Row | SMILES | Fold ISG induction vs unstimulated @10 μM (THP1-Dual cells) [fold] | other results
1 | CC(C)[C@H](N)C(=O)N[C@@H](C)C(=O)Nc1ccc(CSP2(=O)OC[C@H]3O[C@@H](n4cnc5c(N)ncnc54)[C@H](F)[C@@H]3OP(=O)(O)OC[C@H]3O[C@@H](n4cnc5c(O)ncnc54)C[C@@H]3O2)cc1 (stereo partly shown) [CL819] |  | EC50 rank order (lipid chain length): EC50 (CL819=C2-CL797)=EC50 (CL797)
2 | Nc1ncnc2c1ncn2[C@@H]1OC2COP(=O)(S)O[C@@H]3C(COP(=O)(O)O[C@H]2[C@H]1F)O[C@@H](n1cnc2c(=O)[nH]cnc21)[C@@H]3F (stereo partly shown) [CL845, reference compound] | 227 | EC50: 4.57 µM
3 | COC(=O)C1O[C@@H](Oc2ccc(CSP3(=O)OC[C@H]4O[C@@H](n5cnc6c(=O)[nH]cnc65)[C@H](F)[C@@H]4OP(=O)(O)OC[C@H]4O[C@@H](n5cnc6c(N)ncnc65)[C@H](F)[C@@H]4O3)cc2NC(=O)CCCCCN2C(=O)C=CC2=O)C(OC(C)=O)C(OC(C)=O)[C@@H]1OC(C)=O (stereo partly shown) [CL847] | 132 | 
4 | COC(=O)C1O[C@@H](Oc2ccc(CSP3(=O)OC[C@H]4O[C@@H](n5cnc6c(N)ncnc65)[C@H](F)[C@@H]4OP(=O)(O)OC[C@H]4O[C@@H](n5cnc6c(O)ncnc65)C[C@@H]4O3)cc2[N+](=O)[O-])C(OC(C)=O)C(OC(C)=O)[C@@H]1OC(C)=O (stereo partly shown) [CL831] | 6 | 
5 | CC(C)[C@H](NC(=O)CCCCCN1C(=O)C=CC1=O)C(=O)N[C@@H](C)C(=O)Nc1ccc(CSP2(=O)OC[C@H]3O[C@@H](n4cnc5c(N)ncnc54)[C@H](F)[C@@H]3OP(=O)(O)OC[C@H]3O[C@@H](n4cnc5c(O)ncnc54)C[C@@H]3O2)cc1 (stereo partly shown) [CL843] | 16 | 
6 | CC(C)[C@H](NC(=O)COCCOCCNC(=O)COCCOCCNC(=O)COCCOCCNC(=O)COCCOCCN)C(=O)N[C@H](C)C(=O)Nc1ccc(CSP2(=O)OC[C@H]3O[C@@H](n4cnc5c(N)ncnc54)[C@H](F)[C@@H]3OP(=O)(O)OC[C@H]3O[C@@H](n4cnc5c(O)ncnc54)C[C@@H]3O2)cc1 (stereo partly shown) [CL822] | 29 | 
7 | CCCC(=O)N[C@H](C(=O)N[C@@H](C)C(=O)Nc1ccc(CSP2(=O)OC[C@H]3O[C@@H](n4cnc5c(N)ncnc54)[C@H](F)[C@@H]3OP(=O)(O)OC[C@H]3O[C@@H](n4cnc5c(O)ncnc54)C[C@@H]3O2)cc1)C(C)C (stereo partly shown) [CL820] |  | EC50 rank order (lipid chain length): EC50 (CL820=C4-CL797)=EC50 (CL819=C2-CL797)=EC50 (CL797)
8 | CC(C)[C@H](NC(=O)[C@@H](CN)N1C(=O)C=CC1=O)C(=O)N[C@@H](C)C(=O)Nc1ccc(CSP2(=O)OC[C@H]3O[C@@H](n4cnc5c(N)ncnc54)[C@H](F)[C@@H]3OP(=O)(S)OC[C@H]3O[C@@H](n4cnc5c(O)ncnc54)[C@H](F)[C@@H]3O2)cc1 (stereo partly shown) [CL874] | 156 | % activity (vs cGAMP): 297%; ISG activity (THP1-Dual cells): retains full 15G activity
9 | Nc1ncnc2c1ncn2[C@@H]1O[C@@H]2COP(=O)(S)O[C@H]3C[C@H](n4cnc5c(=O)[nH]cnc54)O[C@@H]3COP(=O)(O)O[C@H]2[C@H]1F (stereo partly shown) [CL797, reference compound] | 181 | EC50: 8.15 µM
